Laboratory results reported in US20220061324A1, “PESTICIDALLY ACTIVE HETEROCYCLIC DERIVATIVES WITH SULFUR CONTAINING SUBSTITUENTS” (SYNGENTA CROP PROTECTION AG, priority 2018, published 2022).

What was measured:
Type in all cases: in vivo
[1] = test system: Euschistus heros (Neotropical Brown Stink Bug); assay: Activity against Euschistus heros (neotropical brown stink bug), soybean leaves sprayed; details: 120 h, application rate 200 ppm, N2 nymphs, 5 days after infestation, read-out: effect in at least one of the two categories (mortality or growth inhibition)
Procedure: Example B2: Activity Against Euschistus heros (Neotropical Brown Stink Bug)
Soybean leaves on agar in 24-well microtiter plates were sprayed with aqueous test solutions prepared from 10,000 ppm DMSO stock solutions. After drying the leaves were infested with N2 nymphs. The samples were assessed for mortality and growth inhibition in comparison to untreated samples 5 days after infestation.

[2] = test system: Spodoptera littoralis (Egyptian Cotton Leaf Worm); assay: Activity against Spodoptera littoralis (Egyptian cotton leaf worm), cotton leaf discs; details: foliar, 72 h, application rate 200 ppm, L1 larvae, 3 days after infestation, read-out: control (mortality, anti-feedant effect or growth inhibition)
[3] = test system: Diabrotica balteata (Corn Root Worm); assay: Activity against Diabrotica balteata (corn root worm), maize sprouts sprayed; details: 96 h, application rate 200 ppm, L2 larvae, 4 days after infestation, read-out: effect in at least one of the two categories (mortality or growth inhibition)
Procedure: Example B1: Activity Against Diabrotica balteata (Corn Root Worm)
Maize sprouts placed onto an agar layer in 24-well microtiter plates were treated with aqueous test solutions prepared from 10,000 ppm DMSO stock solutions by spraying. After drying, the plates were infested with L2 larvae (6 to 10 per well). The samples were assessed for mortality and growth inhibition in comparison to untreated samples 4 days after infestation.

[4] = test system: Myzus persicae (Green Peach Aphid); assay: Activity against Myzus persicae (green peach aphid), systemic activity, pea seedlings; details: 144 h, test rate 24 ppm, roots in test solution, 6 days
Procedure: Example B8: Activity Against Myzus persicae (Green Peach Aphid) Systemic Activity
Roots of pea seedlings infested with an aphid population of mixed ages were placed directly into aqueous test solutions prepared from 10,000 DMSO stock solutions. The samples were assessed for mortality 6 days after placing seedlings into test solutions.

[5] = test system: Myzus persicae (Green Peach Aphid); assay: Activity against Myzus persicae (green peach aphid), feeding/contact activity; details: 144 h, application rate 200 ppm, feeding/contact, mixed ages, 6 days after infestation, read-out: mortality
Procedure: Example B4: Activity Against Myzus persicae (Green Peach Aphid) Feeding/Contact Activity
Sunflower leaf discs were placed onto agar in a 24-well microtiter plate and sprayed with aqueous test solutions prepared from 10,000 ppm DMSO stock solutions. After drying, the leaf discs were infested with an aphid population of mixed ages. The samples were assessed for mortality 6 days after infestation.

[6] = test system: Plutella xylostella (Diamond Back Moth); assay: Activity against Plutella xylostella (diamond back moth), artificial diet; details: 192 h, application rate 200 ppm, eggs, 8 days after infestation, read-out: effect in at least one of the two categories (mortality or growth inhibition)

CCS(=O)(=O)c1cc(N(C)C(C)=O)cnc1-c1ncc2c(OCC(F)(F)C(F)(F)F)nccn12 [Compound P13, N-[5-ethylsulfonyl-6-[8-(2,2,3,3,3-penta-fluoropropoxy)imidazo [1,5-a]pyrazin-3-yl]-3-pyridyl]-N-methyl-acetamide]
≥ 80%: percent effect (mortality or growth inhibition) at 200 ppm [1] | percent control (mortality, anti-feedant effect or growth inhibition) at 200 ppm [2] | percent effect (mortality or growth inhibition) at 200 ppm [3] | mortality at 24 ppm [4] | mortality at 200 ppm [5] | percent effect (mortality or growth inhibition) at 200 ppm [6]
